From patent US7598258B2, “Quinoline derivatives and quinazoline derivatives inhibiting autophosphorylation of macrophage colony stimulating factor receptor” (Kirin Beer Kabushiki Kaisha, priority 2002, dated 2009)

Molecular target: T1, mouse c-fms (Mus musculus, UniProt P09581)
T1 construct: Macrophage-like cell line BAC-1.2F5 which expresses c-fms as a M-CSF receptor on cell membranes; endogenous in cells; host or cells: BAC-1.2F5 mouse macrophage-like cell line
T1 sequence (P09581 20-977): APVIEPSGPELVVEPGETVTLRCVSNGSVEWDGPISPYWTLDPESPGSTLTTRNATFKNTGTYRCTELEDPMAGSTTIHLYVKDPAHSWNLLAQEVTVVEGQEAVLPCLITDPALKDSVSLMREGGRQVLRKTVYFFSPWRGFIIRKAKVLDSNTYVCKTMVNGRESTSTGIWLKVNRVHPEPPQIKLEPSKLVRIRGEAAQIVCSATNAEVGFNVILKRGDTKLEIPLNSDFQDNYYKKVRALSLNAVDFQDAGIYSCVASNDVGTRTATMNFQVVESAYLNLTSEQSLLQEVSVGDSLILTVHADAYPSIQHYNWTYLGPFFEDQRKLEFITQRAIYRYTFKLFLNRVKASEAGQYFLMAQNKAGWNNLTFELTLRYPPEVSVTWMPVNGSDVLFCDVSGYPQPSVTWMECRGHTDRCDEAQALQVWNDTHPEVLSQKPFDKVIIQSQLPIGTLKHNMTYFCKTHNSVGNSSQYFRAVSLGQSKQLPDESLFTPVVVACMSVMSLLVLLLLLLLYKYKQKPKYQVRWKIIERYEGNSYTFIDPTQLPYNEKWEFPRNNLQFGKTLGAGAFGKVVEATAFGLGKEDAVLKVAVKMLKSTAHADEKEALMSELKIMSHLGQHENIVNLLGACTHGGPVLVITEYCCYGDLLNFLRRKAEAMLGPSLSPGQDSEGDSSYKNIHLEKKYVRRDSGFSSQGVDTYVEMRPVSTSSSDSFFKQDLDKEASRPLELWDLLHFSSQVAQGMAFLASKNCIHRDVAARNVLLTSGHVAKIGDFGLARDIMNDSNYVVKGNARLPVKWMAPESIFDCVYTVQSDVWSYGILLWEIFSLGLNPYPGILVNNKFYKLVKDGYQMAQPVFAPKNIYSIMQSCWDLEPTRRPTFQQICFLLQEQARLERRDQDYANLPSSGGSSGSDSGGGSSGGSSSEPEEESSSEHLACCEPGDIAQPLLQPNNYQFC
Assay: Inhibition of c-fms autophosphorylation in macrophage-like cell line BAC-1.2F5 by M-CSF stimulation (ELISA)
Assay type: cell-based
Settings: BAC-1.2F5 cells, human recombinant M-CSF 50 ng/ml, read-out: c-fms autophosphorylation 50% inhibitory concentration (IC50)
Procedure: Macrophage-like cell line BAC-1.2F5 which expresses c-fms as a M-CSF receptor on cell membranes (CLAUDIA M. et al., J. Cell. Physiol., 130, 420-427 (1987), “Isolation and Characterization of a Cloned Growth Factor Dependent Macrophage Cell Line, BAC1.2F5”) was cultured at 37° C. in a DMEM medium containing L-cell supernatant and 10% fetal calf serum (GIBCO BRL) in a 5% CO2 incubator until about 50 to 70% confluent. The harvested cells were inoculated into wells, each containing the same medium, in a collagen type I coat 96-well flat-bottom plate in an amount of 5.0×10^4 per well, and cultured at 37° C. for 12 hr. Thereafter, the medium was replaced with a DMEM medium containing a 0.1% fetal calf serum and cultured for 12 hr. Thereafter, a test compound dissolved in dimethyl sulfoxide was added to each well, and cells were incubated at 37° C. for one hr. Human recombinant M-CSF was added to a final concentration of 50 ng/ml, and cells were stimulated at 37° C. for 6 min. After the medium was removed, 50 μl of a solubilization buffer (20 mM HEPES (pH 7.4), 150 mM NaCl, 0.2% Triton X-100, 10% glycerol, 5 mM sodium orthovanadylate, 5 mM disodium ethylenediaminetetraacetate, and 2 mM Na4P2O7) was added thereto. The mixture was shaken at 4° C. for 2 hr to prepare a cell extract as an assay sample which was then used for an ELISA assay.
The plate for the ELISA assay was prepared as follows. Phosphate buffered saline (50 μl, pH 7.4) containing 5 μg/ml of anti-phospho-tyrosine antibody (PY20; Transduction Laboratories) was added to a microplate for ELISA (Maxisorp; purchased from NUNC), followed by standing at 4° C. overnight to be immobilized on the wells. Thereafter, each well was washed twice with 200 μl of a Ca- and Mg-free phosphate buffer containing 0.1% Tween-20 (hereinafter referred to as “PBS-T”), and 200 μl of a blocking solution (Dainippon Pharmaceutical Co. Ltd.: BlockAce) was added to each well, and the wells were then allowed to stand at room temperature for 2 hr for blocking.
Separately, phosphate buffered saline (50 μl, pH 7.4) containing 5 μg/ml of anti-phospho-tyrosine antibody (PY20; Transduction Laboratories) was added to a microplate for ELISA (Maxisorp; purchased from NUNC), followed by standing at 4° C. overnight to form a solid phase on the wells. After washing of the plate, 300 μl of a blocking solution was added, followed by standing at room temperature for 2 hr to perform blocking. After washing, the whole quantity of the cell extract was transferred to the wells, and the plate was then allowed to stand at 4° C. overnight. After washing, anti-c-fms antiserum (Upstate Biotechnology, Inc.) was allowed to react at room temperature for one hr, and, after washing, a peroxidase-labeled anti-rabbit Ig antibody (Amersham) was allowed to react at room temperature for one hr. After washing, a chromophoric substrate for peroxidase (Sumitomo Bakelite Co., Ltd.) was added thereto to initiate a reaction. After a suitable level of color development, a reaction termination solution was added to stop the reaction, and the absorbance at 450 nm was measured with a microplate reader. The c-fms phosphorylation activity for each well was determined by presuming the absorbance without the addition of the test compound and with the addition of M-CSF to be 100% c-fms phosphorylation activity and the absorbance without the addition of the test compound and M-CSF to be 0% c-fms phosphorylation activity. The concentration of the test compound was varied on several levels, the c-fms phosphorylation inhibitory rate was determined for each case, and the concentration of the test compound necessary for inhibiting 50% of c-fms phosphorylation (IC50) was calculated.

SMILES | IC50
COc1cc2nccc(Oc3ccc(NC(=O)NC(C)c4ccc(F)cc4)cc3)c2cc1OC (stereo not shown) [Example 1, N-{4-[(6,7-Dimethoxy-4-quinolyl)oxy]phenyl}-N′-[1-(4-fluorophenyl)ethyl]urea] | 2.4 nM
COc1cc2nccc(Oc3ccc(NC(=O)NC(C)c4ccc(F)cc4)c(Cl)c3)c2cc1OC (stereo not shown) [Example 4, N-{2-Chloro-4-[(6,7-dimethoxy-4-quinolyl)oxy]phenyl}-N′-[1-(4-fluorophenyl)ethyl]urea] | 4 nM
COc1cc2nccc(Oc3ccc(NC(=O)N[C@@H](C)c4ccc(F)cc4)c(Cl)c3)c2cc1OC [Example 5, N-{2-Chloro-4-[(6,7-dimethoxy-4-quinolyl)oxy]phenyl}-N′-[(1S)-1-(4-fluorophenyl)ethyl]urea] | 2.2 nM
COc1cc2nccc(Oc3ccc(NC(=O)N[C@H](C)c4ccc(F)cc4)c(Cl)c3)c2cc1OC [Example 6, N-{2-Chloro-4-[(6,7-dimethoxy-4-quinolyl)oxy]phenyl}-N′-[(1R)-1-(4-fluorophenyl)ethyl]urea] | 6 nM
COc1cc2nccc(Oc3cc(C)c(NC(=O)NC(C)c4ccc(F)cc4)cc3C)c2cc1OC (stereo not shown) [Example 7, N-{4-[(6,7-Dimethoxy-4-quinolyl)oxy]-2,5-dimethylphenyl}-N′-[1-(4-fluorophenyl)ethyl]urea] | 20.2 nM
COc1cc2nccc(Oc3cc(C)c(NC(=O)N[C@@H](C)c4ccc(F)cc4)cc3C)c2cc1OC [Example 8, N-{4-[(6,7-Dimethoxy-4-quinolyl)oxy]-2,5-dimethylphenyl}-N′-[(1S)-1-(4-fluorophenyl)ethyl]urea] | 22.5 nM
COc1cc2nccc(Oc3cc(C)c(NC(=O)N[C@H](C)c4ccc(F)cc4)cc3C)c2cc1OC [Example 9, N-{4-[(6,7-Dimethoxy-4-quinolyl)oxy]-2,5-dimethylphenyl}-N′-[(1R)-1-(4-fluorophenyl)ethyl]urea] | 17.4 nM
COc1cc2nccc(Oc3ccc(NC(=O)NC(C)c4ccc(F)cc4)cc3Cl)c2cc1OC (stereo not shown) [Example 10, N-{3-Chloro-4-[(6,7-dimethoxy-4-quinolyl)oxy]phenyl}-N′-[1-(4-fluorophenyl)ethyl]urea] | 7.1 nM
COc1cc2nccc(Oc3ccc(NC(=O)N[C@@H](C)c4ccc(F)cc4)cc3Cl)c2cc1OC [Example 11, N-{3-Chloro-4-[(6,7-dimethoxy-4-quinolyl)oxy]phenyl}-N′-[(1S)-1-(4-fluorophenyl)ethyl]urea] | 11.7 nM
COc1cc2nccc(Oc3ccc(NC(=O)N[C@H](C)c4ccc(F)cc4)cc3Cl)c2cc1OC [Example 12, N-{3-Chloro-4-[(6,7-dimethoxy-4-quinolyl)oxy]phenyl}-N′-[(1R)-1-(4-fluorophenyl)ethyl]urea] | 10.9 nM
COc1cc2nccc(Oc3ccc(NC(=O)NC(C)c4ccc(F)cc4)c(C)c3)c2cc1OC (stereo not shown) [Example 13, N-{4-[(6,7-Dimethoxy-4-quinolyl)oxy]-2-methylphenyl}-N′-[1-(4-fluorophenyl)ethyl]urea] | 6.1 nM
COc1cc2nccc(Oc3ccc(NC(=O)N[C@@H](C)c4ccc(F)cc4)c(C)c3)c2cc1OC [Example 14, N-{4-[(6,7-Dimethoxy-4-quinolyl)oxy]-2-methylphenyl}-N′-[(1S)-1-(4-fluorophenyl)ethyl]urea] | 13 nM
COc1cc2nccc(Oc3ccc(NC(=O)N[C@H](C)c4ccc(F)cc4)c(C)c3)c2cc1OC [Example 15, N-{4-[(6,7-Dimethoxy-4-quinolyl)oxy]-2-methylphenyl}-N′-[(1R)-1-(4-fluorophenyl)ethyl]urea] | 5.7 nM
COc1cc(Oc2ccnc3cc(OC)c(OC)cc23)ccc1NC(=O)NC(C)c1ccc(F)cc1 (stereo not shown) [Example 16, N-{4-[(6,7-Dimethoxy-4-quinolyl)oxy]-2-methoxyphenyl}-N′-[1-(4-fluorophenyl)ethyl]urea] | 2 nM
COc1cc(Oc2ccnc3cc(OC)c(OC)cc23)ccc1NC(=O)N[C@@H](C)c1ccc(F)cc1 [Example 17, N-{4-[(6,7-Dimethoxy-4-quinolyl)oxy]-2-methoxyphenyl}-N′-[(1S)-1-(4-fluorophenyl)ethyl]urea] | 3.9 nM
COc1cc(Oc2ccnc3cc(OC)c(OC)cc23)ccc1NC(=O)N[C@H](C)c1ccc(F)cc1 [Example 18, N-{4-[(6,7-Dimethoxy-4-quinolyl)oxy]-2-methoxyphenyl}-N′-[(1R)-1-(4-fluorophenyl)ethyl]urea] | 3.7 nM
COc1cc2nccc(Oc3ccc(NC(=O)NC(C)c4ccc(F)cc4)c(C(F)(F)F)c3)c2cc1OC (stereo not shown) [Example 19, N-[4-[(6,7-Dimethoxy-4-quinolyl)oxy]-2-(trifluoromethyl)phenyl]-N′-[1-(4-fluorophenyl)ethyl]urea] | 8.1 nM
COc1cc2nccc(Oc3ccc(NC(=O)N[C@@H](C)c4ccc(F)cc4)c(C(F)(F)F)c3)c2cc1OC [Example 20, N-[4-[(6,7-Dimethoxy-4-quinolyl)oxy]-2-(trifluoromethyl)phenyl]-N′-[(1S)-1-(4-fluorophenyl)ethyl]urea] | 6.2 nM
COc1cc2nccc(Oc3ccc(NC(=O)N[C@H](C)c4ccc(F)cc4)c(C(F)(F)F)c3)c2cc1OC [Example 21, N-[4-[(6,7-Dimethoxy-4-quinolyl)oxy]-2-(trifluoromethyl)phenyl]-N′-[(1R)-1-(4-fluorophenyl)ethyl]urea] | 9.8 nM
COc1cc2nccc(Oc3ccc(NC(=O)NC(C)c4ccc(F)cc4)cc3OC)c2cc1OC (stereo not shown) [Example 22, N-{4-[(6,7-Dimethoxy-4-quinolyl)oxy]-3-methoxyphenyl}-N′-[1-(4-fluorophenyl)ethyl]urea] | 7.7 nM
COc1cc2nccc(Oc3ccc(NC(=O)N[C@@H](C)c4ccc(F)cc4)cc3OC)c2cc1OC [Example 23, N-{4-[(6,7-Dimethoxy-4-quinolyl)oxy]-3-methoxyphenyl}-N′-[(1S)-1-(4-fluorophenyl)ethyl]urea] | 10.2 nM
COc1cc2nccc(Oc3ccc(NC(=O)N[C@H](C)c4ccc(F)cc4)cc3OC)c2cc1OC [Example 24, N-{4-[(6,7-Dimethoxy-4-quinolyl)oxy]-3-methoxyphenyl}-N′-[(1R)-1-(4-fluorophenyl)ethyl]urea] | 13.2 nM
